In patent US5191073A, “Chromogenic merocyanine enzyme substrates” (priority 1992, dated 1993):

Assays:
[1] = Study of Chromogenic Substrate Properties: absorbance maxima, shift, extinction coefficient (Table D); type: physicochemical; details: for λ max Chromogen / λ max Substrate: colour in words where no value; for ε × 10^3 Chromogen / ε × 10^3 Substrate: values are ε × 10^3; for λ max Shift: shift from substrate to chromogen
[2] = Study of Chromogenic Substrate Properties: pKa (Table D); type: physicochemical
β-galactosidase [3] = assay: Study of Chromogenic Substrate Properties: enzyme turnover, Km and Kcat (Table D); type: biochemical
β-galactosidase [4] = assay: colour change of reaction mixture or extract on treatment with β-galactosidase; type: biochemical
Experimental: 3-Ethyl-2-(4'-β-D-galactopyranosyloxynaphthyl-1'-vinylene)-benzothiazolium iodide (20)--Approximately equal amounts of 4-(β-D-galactopyranosyloxy) -1-naphthaldehyde (5) and 2-methylbenzothiazole ethiodide (8) (H. Richter & R. L. Dresser, supra) were heated at reflux for about 1 minute in ethanol containing a small amount of piperidine. The initially colorless mixture became red-orange during this time. The presence of (20) in the reaction mixture was determined by mixing a portion of the reaction mixture with an equal amount of dimethylformamide, diluting this with 0.1M phosphate buffer pH=7.0, and then treating the resulting solution with β-galactosidase.
3-Ethyl-2-(6'-β-D-galactopyranosyloxynaphthyl-2'-vinylene)-benzoselenazolium iodide (24)--A mixture of 6-(β-D-galactopyranosyloxy)-2-naphthaldehyde (6) (34 mg, 0.1 mmole), 2-methylbenzoselenazole ethiodide (12) (H. Richter & R. L. Dresser, supra) (35 mg, 0.1 mmole) and 0.5 mL of anhydrous pyridine was heated in a 70° C. oil bath for 20 hours.
1-Ethyl-4-(4'-β-D-galactopyranosyloxynaphthyl-1'-vinylene)-quinoliniumiodide (29)--A mixture of 4-(β-D-galactopyranosyloxy)-naphthaldehyde (5) (34 mg, 0.1 mmole), lepidine ethiodide (28) (H. Richter & R. L. Dresser, supra) (30 mg, 0.1 mmole) and 0.5 mL of anhydrous pyridine was heated in a 70° C. oil bath for 3 hours. Then an additional of 60 mg of lepidine ethiodide (28), was added and the reaction mixture was allowed to react in the 70° C. oil bath for a total of 20 hours.

| SMILES | λ max Chromogen [1] | ε × 10^3 Chromogen [1] | λ max Shift [1] | λ max Substrate [1] | ε × 10^3 Substrate [1] | pKa [2] | Kcat (β-galactosidase [3]) | Km (β-galactosidase [3]) [µM] | colour change on addition of β-galactosidase (β-galactosidase [4]; dimethylformamide diluted with 0.1M phosphate buffer pH=7.0) | colour change on addition of β-galactosidase (β-galactosidase [4]; 0.3M bicene buffer (pH 7.9), β-galactosidase and a drop of 1N NaOH) | colour change on addition of β-galactosidase (β-galactosidase [4]; 50 mM phosphate buffer (pH 7.4)) | time to colour change on addition of β-galactosidase (β-galactosidase [4]; 50 mM phosphate buffer (pH 7.4), yellow to blue) [s] |
| --- | --- | --- | --- | --- | --- | --- | --- | --- | --- | --- | --- | --- |
| CC[N+]1=C(C=Cc2ccc(O[C@@H]3O[C@H](CO)[C@H](O)[C@H](O)[C@H]3O)cc2)C(C)(C)c2ccccc21 [Compound 16, 1-Ethyl-2-(4'-β-D-galactopyranosyloxystyryl)-3,3-dimethylindolenium iodide] | 522 | 45.0 | 116 | 406 | 25.3 | 7.3 | 1.43 × 10^3 mole/min per mole active site | 18 |  |  |  |  |
| CC[N+]1=C(C=Cc2ccc(O[C@@H]3O[C@H](CO)[C@H](O)[C@H](O)[C@H]3O)c3ccccc23)C(C)(C)c2ccccc21 [Compound 17, 1-Ethyl-2-(4'-β-D-galactopyranosyloxynaphthyl-1-vinylene)-3,3-dimethylindolinium iodide] | 580 | 82.0 | 124 | 456 | 28.0 | 6 | 7.8 × 10^3 mole/min per mole active site | 90 |  |  |  |  |
| CC[N+]1=C(C=Cc2ccc3cc(O[C@@H]4O[C@H](CO)[C@H](O)[C@H](O)[C@H]4O)ccc3c2)C(C)(C)c2ccccc21 [Compound 18, 1-Ethyl-2-(6'-β-D-galactopyranosyloxynaphthyl-2'-vinylene)-3,3-dimethylindolenium iodide] | 530 |  | 100 | 430 | 32.2 | 8.3 | 1.3 × 10^4 mole/min per mole active site | 80 |  |  |  |  |
| CC[n+]1c(C=Cc2ccc(O[C@@H]3O[C@H](CO)[C@H](O)[C@H](O)[C@H]3O)cc2)sc2ccccc21.[Cl-] [Compound 19, 3-Ethyl-2-(4'-β-D-galactopyranosyloxystyryl) benzothiazolium chloride] | 492 | 43.0 | 99 | 393 |  | 7.6 | 3.04 × 10^3 mole/min per mole active site | 17 |  |  |  |  |
| CC[n+]1c(C=Cc2ccc(O[C@@H]3O[C@H](CO)[C@H](O)[C@H](O)[C@H]3O)c3ccccc23)sc2ccccc21 [Compound 20, 3-Ethyl-2-(4'-β-D-galactopyranosyloxynaphthyl-1'-vinylene)-benzothiazolium iodide] | violet |  |  | yellow |  |  |  |  | turned from yellow in color to violet |  |  |  |
| CC[n+]1c(C=Cc2ccc(O[C@@H]3O[C@H](CO)[C@H](O)[C@H](O)[C@H]3O)c3ccccc23)sc2cc(OC)ccc21 [Compound 21, 3-Ethyl-2-(4'-β-D-galactopyranosyloxynaphthyl-1'-vinylene)-6-methoxybenzothiazolium iodide] | 598 | 80.1 | 176 | 422 | 10.5 | 6.6 | 2.8 × 10^3 mole/min per mole active site | 430 |  |  |  |  |
| C[n+]1c(/C=C/c2ccc(O[C@@H]3O[C@H](CO)[C@H](O)[C@H](O)[C@H]3O)c3ccccc23)sc2ccc3ccccc3c21 [Compound 22, 2-(4'-β-D-galactopyranosyloxynaphthyl-1'-vinylene)-3-methyl-β-naphthothiazolium iodide] | 610 |  | 140 | 470 |  | 7 |  |  |  |  |  |  |
| CC[n+]1c(C=Cc2ccc(O[C@@H]3O[C@H](CO)[C@H](O)[C@H](O)[C@H]3O)c3ccccc23)sc2ccc(C)cc21 [Compound 23, 3-Ethyl-2-(4'-β-D-galactopyranosyloxynaphthyl-1'-vinylene)-5-methylbenzothiazolium iodide] | blue |  |  | yellow |  |  |  |  |  |  |  |  |
| CC[n+]1c(C=Cc2ccc3cc(O[C@@H]4O[C@H](CO)[C@H](O)[C@H](O)[C@H]4O)ccc3c2)[se]c2ccccc21 [Compound 24, 3-Ethyl-2-(6'-β-D-galactopyranosyloxynaphthyl-2'-vinylene)-benzoselenazolium iodide] | purple |  |  | yellow |  |  |  |  |  | turned to purple immediately |  |  |
| Cc1ccc2oc(C=Cc3ccc(O[C@@H]4O[C@H](CO)[C@H](O)[C@H](O)[C@H]4O)c4ccccc34)[n+](CCC(=O)O)c2c1 [Compound 25, 3-(2"-Carboxyethyl)-2-(4'-β-D-galactopyranosyloxynaphthyl-1'-vinylene)-5-methyl benzoxazolium bromide] | 550 | 50.1 | 130 | 420 | 15.8 | 6.6 | 9.8 × 10^2 mole/min per mole active site | 80 |  |  |  |  |
| CC[n+]1c(C=Cc2ccc(O[C@@H]3O[C@H](CO)[C@H](O)[C@H](O)[C@H]3O)c3ccccc23)ccc2ccccc21 [Compound 26, 1-Ethyl-2-(4'-β-D-galactopyranosyloxynaphthyl-1'-vinylene)-quinoliniumiodide] | 606 | 70.2 | 172 | 434 | 16.0 | 6.5 |  |  |  |  |  |  |
| CC[n+]1ccc(C=Cc2ccc(O[C@@H]3O[C@H](CO)[C@H](O)[C@H](O)[C@H]3O)c3ccccc23)c2ccccc21 [Compound 29, 1-Ethyl-4-(4'-β-D-galactopyranosyloxynaphthyl-1'-vinylene)-quinoliniumiodide] | blue |  |  | yellow |  |  |  |  |  |  | yellow solution turned to blue color | ≤ 5 |
